Test results from PubChem BioAssay (NCI).
Several values for one entry are separate records, joined by “and”; a condition that tells them apart may be missing. Equal entries are not always repeated.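 Each compound was tested at five concentrations against cells in 96-well plates for 48 hours. GI50: concentration for 50% inhibition of growth. TGI denotes the concentration required for complete inhibition of growth.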

What was measured:
Assay in all cases: NCI tumour cell line growth inhibition, 48 h
DMS 114 small cell lung = test system: DMS 114 small cell lung
SK-MEL-5 melanoma = test system: SK-MEL-5 melanoma
DLD-1 colon = test system: DLD-1 colon
HL-60(TB) leukemia = test system: HL-60(TB) leukemia
UACC-62 melanoma = test system: UACC-62 melanoma
M19-MEL melanoma = test system: M19-MEL melanoma
SK-OV-3 ovarian = test system: SK-OV-3 ovarian
CCRF-CEM leukemia = test system: CCRF-CEM leukemia
HCC-2998 colon = test system: HCC-2998 colon
MDA-MB-435 = test system: MDA-MB-435
HS 578T breast = test system: HS 578T breast

## O=C(O)C1CC2C=CCC(C2)C1 (configuration not stated)
DMS 114 small cell lung
  TGI: > 100 µM
SK-MEL-5 melanoma
  TGI: > 100 µM
DLD-1 colon
  TGI: > 100 µM
HL-60(TB) leukemia
  TGI: > 100 µM
UACC-62 melanoma
  TGI: > 100 µM
M19-MEL melanoma
  TGI: > 100 µM
SK-OV-3 ovarian
  TGI: > 100 µM
CCRF-CEM leukemia
  TGI: > 100 µM

## CCOC(=O)NN1C(=O)C(=P(c2ccccc2)(c2ccccc2)c2ccccc2)C(C(=O)OC)=C1C
DMS 114 small cell lung
  TGI: > 100 µM
SK-MEL-5 melanoma
  TGI: > 100 µM
HCC-2998 colon
  TGI: > 100 µM
DLD-1 colon
  TGI: > 100 µM
HL-60(TB) leukemia
  TGI: > 100 µM
UACC-62 melanoma
  TGI: > 100 µM
M19-MEL melanoma
  TGI: > 100 µM
SK-OV-3 ovarian
  TGI: > 100 µM
CCRF-CEM leukemia
  TGI: > 100 µM

## N.N.N.N.O=S([O-])[O-].[Co+3].[N-]=[N+]=[N-]
SK-MEL-5 melanoma
  GI50: > 100 µM
  TGI: > 100 µM
HCC-2998 colon
  GI50: > 100 µM
  TGI: > 100 µM
DLD-1 colon
  GI50: > 100 µM
  TGI: > 100 µM
HL-60(TB) leukemia
  GI50: > 100 µM
  TGI: > 100 µM
UACC-62 melanoma
  GI50: > 100 µM
  TGI: > 100 µM
SK-OV-3 ovarian
  GI50: > 100 µM
  TGI: > 100 µM
CCRF-CEM leukemia
  GI50: > 100 µM
  TGI: > 100 µM

## O=C1N=C2N=C(c3ccc(Cl)cc3)N(c3ccc(Cl)cc3)N2Sc2ccccc21
DMS 114 small cell lung
  TGI: > 100 µM
SK-MEL-5 melanoma
  TGI: > 100 µM
HCC-2998 colon
  TGI: > 100 µM
DLD-1 colon
  TGI: > 100 µM
HL-60(TB) leukemia
  TGI: > 100 µM
UACC-62 melanoma
  TGI: > 100 µM
M19-MEL melanoma
  TGI: > 100 µM
SK-OV-3 ovarian
  TGI: > 100 µM
CCRF-CEM leukemia
  TGI: > 100 µM

## CN(C)C(=S)/N=c1\ssc(=Nc2ccccc2)n1-c1ccccc1
DMS 114 small cell lung
  TGI: 29.8 µM
HCC-2998 colon
  TGI: 68.9 µM
DLD-1 colon
  TGI: > 100 µM
HL-60(TB) leukemia
  TGI: > 100 µM
M19-MEL melanoma
  TGI: > 100 µM
SK-OV-3 ovarian
  TGI: 80.5 µM
CCRF-CEM leukemia
  TGI: > 100 µM

## Nc1ccc(C(=O)N/C(=C\c2ccc3c(c2)OCO3)c2nc3ccccc3s2)cc1
SK-MEL-5 melanoma
  TGI: 29.2 µM
HCC-2998 colon
  TGI: 27.9 µM
DLD-1 colon
  TGI: 59.7 µM
UACC-62 melanoma
  TGI: 33.2 µM
M19-MEL melanoma
  TGI: 32.6 µM
SK-OV-3 ovarian
  TGI: 36.2 µM
CCRF-CEM leukemia
  TGI: 7.28 µM

## COC(=O)C1=C(O)c2cc(OC)c(OC)c(OC)c2C(c2ccc3c(c2)OCO3)[C@@H]1C(=O)OC (some centres not stated)
DMS 114 small cell lung
  TGI: 5.96 µM
HCC-2998 colon
  TGI: 31.7 µM
DLD-1 colon
  TGI: > 100 µM
HL-60(TB) leukemia
  TGI: 5.49 µM
UACC-62 melanoma
  TGI: > 100 µM
SK-OV-3 ovarian
  TGI: 8.76 µM
CCRF-CEM leukemia
  TGI: > 100 µM

## Cc1c(-c2ccc(-c3ccccc3F)cc2)nc2ccc(F)cc2c1C(=O)O
MDA-MB-435
  GI50: 1.28 µM and 0.371 µM and 2.48 µM
  TGI: 101 µM and 128 µM
SK-MEL-5 melanoma
  GI50: 2.37 µM
  TGI: 58.6 µM and 186 µM
HCC-2998 colon
  GI50: 19.7 µM and 55.9 µM
  TGI: 115 µM and 129 µM
DLD-1 colon
  GI50: 1.58 µM
  TGI: 146 µM and 1040 µM
HL-60(TB) leukemia
  TGI: 36.4 µM and 148 µM and 302 µM
UACC-62 melanoma
  GI50: 0.5 µM
  TGI: 48.4 µM and 164 µM
M19-MEL melanoma
  TGI: 153 µM
SK-OV-3 ovarian
  GI50: > 41.2 µM
  TGI: 86.5 µM and 603 µM
CCRF-CEM leukemia
  GI50: 0.0742 µM and 0.557 µM
  TGI: 190 µM and 684 µM

## CCOC(=N)CC(=O)Nc1ccccc1CC
SK-MEL-5 melanoma
  TGI: > 100 µM
HCC-2998 colon
  TGI: > 100 µM
DLD-1 colon
  TGI: > 100 µM
HL-60(TB) leukemia
  TGI: > 100 µM
UACC-62 melanoma
  TGI: > 100 µM
M19-MEL melanoma
  TGI: > 100 µM
SK-OV-3 ovarian
  TGI: > 100 µM
CCRF-CEM leukemia
  TGI: > 100 µM

## COc1ccc(OCC(=O)O)c2c1CCC(C)C2=O (configuration not stated)
DMS 114 small cell lung
  TGI: > 100 µM
SK-MEL-5 melanoma
  TGI: > 100 µM
HCC-2998 colon
  TGI: > 100 µM
DLD-1 colon
  TGI: > 100 µM
HL-60(TB) leukemia
  TGI: > 100 µM
UACC-62 melanoma
  TGI: > 100 µM
M19-MEL melanoma
  TGI: > 100 µM
SK-OV-3 ovarian
  TGI: > 100 µM
CCRF-CEM leukemia
  TGI: > 100 µM

## c1ccc(N2CCN(CCN3CCc4c([nH]c5ccccc45)C3c3cccnc3)CC2)cc1 (configuration not stated)
DMS 114 small cell lung
  TGI: > 100 µM
SK-MEL-5 melanoma
  TGI: > 100 µM
HCC-2998 colon
  TGI: > 100 µM
DLD-1 colon
  TGI: > 100 µM
HL-60(TB) leukemia
  TGI: > 100 µM
UACC-62 melanoma
  TGI: > 100 µM
M19-MEL melanoma
  TGI: > 100 µM
SK-OV-3 ovarian
  TGI: 95.2 µM
CCRF-CEM leukemia
  TGI: > 100 µM

## Cc1cccc(C=NC23CC4CC(CC(C4)C2)C3)c1
DMS 114 small cell lung
  TGI: > 100 µM
SK-MEL-5 melanoma
  TGI: > 100 µM
HCC-2998 colon
  TGI: > 100 µM
DLD-1 colon
  TGI: > 100 µM
HL-60(TB) leukemia
  TGI: > 100 µM
UACC-62 melanoma
  TGI: > 100 µM
M19-MEL melanoma
  TGI: > 100 µM
SK-OV-3 ovarian
  TGI: > 100 µM
CCRF-CEM leukemia
  TGI: > 100 µM

## COc1ccccc1/C=C(\NC(=O)c1ccccc1)c1nc2ccccc2[nH]1
DMS 114 small cell lung
  TGI: > 100 µM
SK-MEL-5 melanoma
  TGI: 48 µM
DLD-1 colon
  TGI: > 100 µM
UACC-62 melanoma
  TGI: > 100 µM
M19-MEL melanoma
  TGI: > 100 µM
SK-OV-3 ovarian
  TGI: > 100 µM
CCRF-CEM leukemia
  TGI: > 100 µM

## C[C@@H]1CC2(C[C@@H](C)C3[C@@H](CC4(C)CCCC5C6=CC(O)(CC[C@]34C)OC6=CC(=O)OC5(C)C)O2)OC1=O (some centres not stated)
DMS 114 small cell lung
  TGI: > 100 µM
SK-MEL-5 melanoma
  TGI: > 100 µM
HCC-2998 colon
  TGI: > 100 µM
DLD-1 colon
  TGI: > 100 µM
HL-60(TB) leukemia
  TGI: > 100 µM
UACC-62 melanoma
  TGI: > 100 µM
SK-OV-3 ovarian
  TGI: > 100 µM

## COC(OC)c1cccnc1C
DMS 114 small cell lung
  TGI: > 100 µM
SK-MEL-5 melanoma
  TGI: > 100 µM
DLD-1 colon
  TGI: > 100 µM
HL-60(TB) leukemia
  TGI: > 100 µM
UACC-62 melanoma
  TGI: > 100 µM
M19-MEL melanoma
  TGI: > 100 µM
SK-OV-3 ovarian
  TGI: > 100 µM
CCRF-CEM leukemia
  TGI: > 100 µM

## CC(NC1CCCC[C@@H]1O)c1ccccc1 (some centres not stated)
SK-MEL-5 melanoma
  TGI: > 100 µM
HCC-2998 colon
  TGI: > 100 µM
DLD-1 colon
  TGI: > 100 µM
HL-60(TB) leukemia
  TGI: > 100 µM
UACC-62 melanoma
  TGI: > 100 µM
M19-MEL melanoma
  TGI: > 100 µM
SK-OV-3 ovarian
  TGI: > 100 µM
CCRF-CEM leukemia
  TGI: > 100 µM

## Cc1cc(O)c2c(c1)OC1(C)CCC3C(C)(C)CCCC34COC2C14 (configuration not stated)
DMS 114 small cell lung
  TGI: 27.1 µM
SK-MEL-5 melanoma
  TGI: 27.5 µM
HCC-2998 colon
  TGI: 28.1 µM
DLD-1 colon
  TGI: 36.8 µM
HL-60(TB) leukemia
  TGI: 63.7 µM
UACC-62 melanoma
  TGI: 34.8 µM
CCRF-CEM leukemia
  TGI: 42.7 µM

## CNC(=O)NCCCCC(NC(C)=O)C(=O)NCc1ccccc1 (configuration not stated)
DMS 114 small cell lung
  TGI: > 100 µM
SK-MEL-5 melanoma
  TGI: > 100 µM
HCC-2998 colon
  TGI: > 100 µM
DLD-1 colon
  TGI: > 100 µM
UACC-62 melanoma
  TGI: > 100 µM
M19-MEL melanoma
  TGI: > 100 µM
SK-OV-3 ovarian
  TGI: > 100 µM
CCRF-CEM leukemia
  TGI: > 100 µM

## CCNC(=O)COc1ccc(Cl)c(C)c1
DMS 114 small cell lung
  TGI: > 100 µM
SK-MEL-5 melanoma
  TGI: > 100 µM
HCC-2998 colon
  TGI: > 100 µM
DLD-1 colon
  TGI: > 100 µM
HL-60(TB) leukemia
  TGI: > 100 µM
UACC-62 melanoma
  TGI: > 100 µM
M19-MEL melanoma
  TGI: > 100 µM
SK-OV-3 ovarian
  TGI: > 100 µM
CCRF-CEM leukemia
  TGI: > 100 µM

## COc1ccc(C2=NNC(c3sc(Cl)nc3Cl)C2)cc1 (configuration not stated)
MDA-MB-435
  GI50: 3.25 µM
  TGI: 16.7 µM
SK-MEL-5 melanoma
  GI50: 3.51 µM
  TGI: 14.3 µM
HCC-2998 colon
  GI50: 16.9 µM
  TGI: 33.9 µM
HS 578T breast
  GI50: 16.8 µM
  TGI: 67.4 µM
HL-60(TB) leukemia
  GI50: 10.4 µM
  TGI: 64.1 µM
UACC-62 melanoma
  GI50: 6.94 µM
  TGI: 21.1 µM
SK-OV-3 ovarian
  GI50: 13.2 µM
  TGI: 51.4 µM
CCRF-CEM leukemia
  GI50: 2.75 µM
  TGI: 15.7 µM

## CCOc1ccc2cc(-c3nn(CC4CCN(C)CC4)c4ncnc(N)c34)ccc2c1
MDA-MB-435
  GI50: 12.2 µM
  TGI: 24.7 µM
SK-MEL-5 melanoma
  GI50: 15.8 µM
  TGI: 29.3 µM
HCC-2998 colon
  GI50: 17.1 µM
  TGI: 32 µM
HS 578T breast
  GI50: 11.1 µM
  TGI: 33.7 µM
HL-60(TB) leukemia
  GI50: 15.7 µM
  TGI: 34.6 µM
UACC-62 melanoma
  GI50: 16.3 µM
  TGI: 32.5 µM
SK-OV-3 ovarian
  GI50: 11.2 µM
  TGI: 36.1 µM
CCRF-CEM leukemia
  GI50: 16.8 µM
  TGI: 55.2 µM

## Nc1ccccc1SC(/C=C/NNC1=NC(c2ccccc2)C(c2ccccc2)=NN1)c1ccccc1 (configuration not stated)
DMS 114 small cell lung
  TGI: 30.1 µM
SK-MEL-5 melanoma
  TGI: 26.8 µM
HCC-2998 colon
  TGI: 30.5 µM
DLD-1 colon
  TGI: 31.8 µM
HL-60(TB) leukemia
  TGI: 13.1 µM
UACC-62 melanoma
  TGI: 24.1 µM
M19-MEL melanoma
  TGI: 25 µM
SK-OV-3 ovarian
  TGI: 44.4 µM
CCRF-CEM leukemia
  TGI: 7.94 µM
